The text below walks through data of PubChem BioAssay AID328 (DTP/NCI, 2004).

Each structure is given as a SMILES string. Values joined by “and” are separate entries in the source; they are usually repeats but may differ in a detail not shown here. Identical values can stand only once. Toxic doses and inconclusive results are not listed.

In this assay the test system is BDF1 mice, P388 leukemia ip, median survival T/C. The experiment in a line: NCI In Vivo Anticancer Drug Screen. Data for tumor model P388 Leukemia (intraperitoneal) in B6D2F1 (BDF1) mice. As to conditions: endpoint: median survival time, higher = longer survival. In a few lines: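 Reported as T/C, where T is the survival measurement in dosed animals and C the same measurement in vehicle controls.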

Where [1] appears, read: dose: 12.5 mg/kg/injection, schedule: Q01DX009 (ip), vehicle: saline.
[2] abbreviates: dose: 50.0 mg/kg/injection, schedule: Q01DX009 (ip), vehicle: saline with Tween-80.
Where [3] appears, read: dose: 100.0 mg/kg/injection, schedule: Q01DX009 (ip), vehicle: saline with Tween-80.
Where [4] appears, read: dose: 200.0 mg/kg/injection, schedule: Q01DX009 (ip), vehicle: saline with Tween-80.
Setting [5] is: dose: 100.0 mg/kg/injection, schedule: Q01DX001 (ip), vehicle: saline with Tween-80.
The mark [6] stands for this setting: dose: 200.0 mg/kg/injection, schedule: Q01DX001 (ip), vehicle: saline with Tween-80.
Where [7] appears, read: dose: 25.0 mg/kg/injection, schedule: Q01DX009 (ip), vehicle: saline with Tween-80.
Setting [8] is: dose: 100.0 mg/kg/injection, schedule: Q04DX003 (ip), vehicle: saline with Tween-80.
[9] abbreviates: dose: 200.0 mg/kg/injection, schedule: Q04DX003 (ip), vehicle: saline with Tween-80.
The mark [10] stands for this setting: dose: 400.0 mg/kg/injection, schedule: Q04DX003 (ip), vehicle: saline with Tween-80.

Consider `N#Cc1ccc(NC(=O)N(CCCl)N=O)cc1`, for which the T/C was 122 % of control (dose: 0.29 mg/kg/injection, schedule: Q01DX009 (ip), vehicle: saline); 116 % of control (dose: 0.37 mg/kg/injection, schedule: Q01DX009 (ip), vehicle: Klucel (hydroxypropylcellulose) (HPC)); 122 % of control (dose: 0.44 mg/kg/injection, schedule: Q01DX009 (ip), vehicle: saline); 103 % of control (dose: 0.5 mg/kg/injection, schedule: Q04DX003 (ip), vehicle: Klucel (hydroxypropylcellulose) (HPC)); 107 % of control (dose: 0.8 mg/kg/injection, schedule: Q04DX003 (ip), vehicle: Klucel (hydroxypropylcellulose) (HPC)); 162 % of control (dose: 1.0 mg/kg/injection, schedule: Q01DX009 (ip), vehicle: saline). The T/C is 153 % of control and 202 % of control (dose: 1.56 mg/kg/injection, schedule: Q01DX009 (ip), vehicle: saline); 183 % of control (dose: 2.0 mg/kg/injection, schedule: Q04DX003 (ip), vehicle: Klucel (hydroxypropylcellulose) (HPC)); 187 % of control (dose: 3.0 mg/kg/injection, schedule: Q01DX009 (ip), vehicle: Klucel (hydroxypropylcellulose) (HPC)); 170 % of control (dose: 3.0 mg/kg/injection, schedule: Q04DX003 (ip), vehicle: Klucel (hydroxypropylcellulose) (HPC)); 175 % of control (dose: 3.12 mg/kg/injection, schedule: Q01DX009 (ip), vehicle: Klucel (hydroxypropylcellulose) (HPC)); 194 % of control (dose: 3.12 mg/kg/injection, schedule: Q01DX009 (ip), vehicle: saline). Also, the T/C by setting is: (dose: 5.0 mg/kg/injection, schedule: Q04DX003 (ip), vehicle: Klucel (hydroxypropylcellulose) (HPC)) 191 % of control and 200 % of control and 215 % of control; (dose: 6.25 mg/kg/injection, schedule: Q01DX009 (ip), vehicle: Klucel (hydroxypropylcellulose) (HPC)) 204 % of control; (dose: 6.25 mg/kg/injection, schedule: Q01DX009 (ip), vehicle: saline) 219 % of control; (dose: 8.0 mg/kg/injection, schedule: Q04DX003 (ip), vehicle: Klucel (hydroxypropylcellulose) (HPC)) 185 % of control and 210 % of control; (dose: 12.0 mg/kg/injection, schedule: Q04DX003 (ip), vehicle: Klucel (hydroxypropylcellulose) (HPC)) 245 % of control and 220 % of control; (dose: 12.5 mg/kg/injection, schedule: Q01DX009 (ip), vehicle: Klucel (hydroxypropylcellulose) (HPC)) 100 % of control. Moreover, the T/C runs as follows: under setting [1], 102 % of control; (dose: 12.5 mg/kg/injection, schedule: Q04DX003 (ip), vehicle: Klucel (hydroxypropylcellulose) (HPC)) 222 % of control; (dose: 18.0 mg/kg/injection, schedule: Q04DX003 (ip), vehicle: Klucel (hydroxypropylcellulose) (HPC)) 265 % of control and 110 % of control; (dose: 25.0 mg/kg/injection, schedule: Q04DX003 (ip), vehicle: Klucel (hydroxypropylcellulose) (HPC)) 109 % of control.

`O=C1Nc2ccc(Br)cc2C1=Nc1ccc(Cl)cc1`: the T/C by setting is: under setting [2], 101 % of control; under setting [3], 105 % of control; under setting [4], 118 % of control.

Take `O=S1(=O)CC(S(=O)(=O)c2ccccc2)C1`: the T/C under setting [5] was 99 % of control; the T/C under setting [6] is 103 % of control; the T/C (dose: 400.0 mg/kg/injection, schedule: Q01DX001 (ip), vehicle: saline with Tween-80) was 100 % of control.

Consider `CCN1CCCC(Nc2nc(Nc3cc(Cl)cc(Cl)c3)nc3ccc(Cl)cc23)C1` (stereo not given), for which the T/C is, setting by setting: (dose: 6.25 mg/kg/injection, schedule: Q01DX009 (ip), vehicle: saline with Tween-80) 122 % of control; (dose: 12.5 mg/kg/injection, schedule: Q01DX009 (ip), vehicle: saline with Tween-80) 109 % of control; under setting [7], 109 % of control.

With `COC(OC)C1=C(Cl)C(Cl)=C(Cl)/C1=N\Nc1ccccc1`, the T/C was 109 % of control under setting [5] and 86 % of control under setting [6].

Take `COc1cc2c(cc1O)C(=O)CCCC2`: the T/C by setting is: under setting [7], 97 % of control; under setting [2], 101 % of control and 120 % of control; (dose: 100.0 mg/kg/injection, schedule: Q01DX009 (ip), vehicle: Klucel (hydroxypropylcellulose) (HPC)) 103 % of control; under setting [3], 97 % of control; under setting [8], 100 % of control; (dose: 200.0 mg/kg/injection, schedule: Q01DX009 (ip), vehicle: Klucel (hydroxypropylcellulose) (HPC)) 103 % of control. The T/C under setting [9] was 104 % of control; the T/C (dose: 400.0 mg/kg/injection, schedule: Q01DX009 (ip), vehicle: Klucel (hydroxypropylcellulose) (HPC)) was 103 % of control; the T/C under setting [10] is 95 % of control.

Turning to `NC(=O)c1nccnc1Cl`, the T/C is, setting by setting: under setting [2], 110 % of control; (dose: 50.0 mg/kg/injection, schedule: Q04DX003 (ip), vehicle: saline with Tween-80) 101 % of control; under setting [3], 98 % of control; under setting [8], 102 % of control and 111 % of control; under setting [4], 91 % of control; under setting [9], 88 % of control and 104 % of control. Besides, the T/C under setting [10] was 92 % of control and 101 % of control.

In the case of `Cc1cccc2c1CC(C(C)C)C2` (stereo not given), the T/C reads like this: under setting [3], 123 % of control; under setting [4], 103 % of control.

Consider `CCOC(=O)N1C=Cn2c(cnc2C)C1OCC` (stereo not given), for which the T/C is, setting by setting: (dose: 100.0 mg/kg/injection, schedule: Q04DX003 (ip), vehicle: saline) 102 % of control; (dose: 200.0 mg/kg/injection, schedule: Q04DX003 (ip), vehicle: saline) 112 % of control; (dose: 400.0 mg/kg/injection, schedule: Q04DX003 (ip), vehicle: saline) 116 % of control.

For the compound `CC1(C)c2ccccc2C2C1C1(Cl)C(=O)C2(Cl)C(Cl)=C1Cl` (stereo not given), the T/C by setting is: (dose: 100.0 mg/kg/injection, schedule: Q04DX003 (ip), vehicle: saline sonified) 100 % of control; (dose: 200.0 mg/kg/injection, schedule: Q04DX003 (ip), vehicle: saline sonified) 95 % of control; (dose: 400.0 mg/kg/injection, schedule: Q04DX003 (ip), vehicle: saline sonified) 100 % of control.

For `Cc1cc(-c2ccc(NC(=O)Nc3cccc(F)c3)c(C)c2)ccc1NC(=O)Nc1cccc(F)c1`, the T/C was 91 % of control (dose: 50.0 mg/kg/injection, schedule: Q01DX005 (ip), vehicle: saline with Tween-80); 86 % of control (dose: 100.0 mg/kg/injection, schedule: Q01DX005 (ip), vehicle: saline with Tween-80); 86 % of control (dose: 200.0 mg/kg/injection, schedule: Q01DX005 (ip), vehicle: saline with Tween-80).

`Clc1nc2ccccc2n2nnnc12`: the T/C (dose: 5.0 mg/kg/injection, schedule: Q01DX009 (ip), vehicle: saline with Tween-80) is 105 % of control; the T/C (dose: 10.0 mg/kg/injection, schedule: Q01DX009 (ip), vehicle: saline with Tween-80) was 105 % of control; the T/C under setting [1] is 94 % of control; the T/C (dose: 20.0 mg/kg/injection, schedule: Q01DX009 (ip), vehicle: saline with Tween-80) was 107 % of control; the T/C (dose: 25.0 mg/kg/injection, schedule: Q01DX009 (ip), vehicle: saline) is 97 % of control.
